Results published in US20230183193A1, “4-DIFLUOROMETHYL BENZOYL AMIDES WITH HERBICIDAL ACTION” (BAYER CROPSCIENCE AKTIENGESELLSCHAFT, priority 2017, published 2023).

What was measured:
Avena fatua [1] = test: Post-emergence herbicidal action, AVEFA; assay type: in vivo
Method in brief: (§1)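 Visual percent activity relative to untreated controls, assessed about 3 weeks after foliar treatment, where 0% equals control growth and 100% equals death. Compounds, as wettable powders or emulsion concentrates, are sprayed onto one-leaf-stage plants in sandy loam.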

Setaria viridis [2] = test: Pre-emergence herbicidal action, SETVI; assay type: in vivo
Method in brief: (§2)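 Percent herbicidal activity rated by eye 3 weeks after pre-emergence soil-surface application, compared with untreated pots. Seeds sat under sandy loam; sprays carried 0.2% wetting agent.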

Amaranthus retroflexus [3] = test: Post-emergence herbicidal action, AMARE; assay type: in vivo; settings: 80 g/ha, Table D
Method in brief: as §1

Alopecurus myosuroides [4] = test: Pre-emergence herbicidal action, ALOMY; assay type: in vivo
Method in brief: as §2

Pharbitis purpureum = test: Post-emergence herbicidal action, PHBPU; assay type: in vivo; settings: 80 g/ha, Table D
Method in brief: as §1

Avena fatua [5] = test: Pre-emergence herbicidal action, AVEFA; assay type: in vivo
Method in brief: as §2

Polygonum convolvulus = test: Pre-emergence herbicidal action, POLCO; assay type: in vivo; settings: Table K
Method in brief: as §2

Abutilon theophrasti [6] = test: Pre-emergence herbicidal action, ABUTH; assay type: in vivo; settings: for Herbicidal efficacy against ABUTH: Table K
Method in brief: as §2

ECHCG [7] = test: Pre-emergence herbicidal action, ECHCG; assay type: in vivo, Echinochloa crus-galli
Stellaria media [8] = test: Pre-emergence herbicidal action, STEME; assay type: in vivo; settings: dosage 320 g/ha, scored visually after 3 weeks vs untreated controls
Method in brief: as §2

Viola tricolor [9] = test: Post-emergence herbicidal action, VIOTR; assay type: in vivo
Method in brief: as §1

Stellaria media [10] = test: Post-emergence herbicidal action, STEME; assay type: in vivo
Method in brief: as §1

Cyperus serotinus [11] = test: Pre-emergence herbicidal action, CYPES; assay type: in vivo
Method in brief: as §2

ECHCG [12] = test: Post-emergence herbicidal action, ECHCG; assay type: in vivo; settings: 80 g/ha, Table C
Method in brief: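 Weed and crop plants grown in sandy loam in the greenhouse, treated at the one-leaf stage 2–3 weeks after sowing. Damage scored visually after about 3 weeks vs untreated controls (0% = control, 100% = dead).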

Viola tricolor [13] = test: Pre-emergence herbicidal action, VIOTR; assay type: in vivo; settings: for Herbicidal efficacy against VIOTR: Table K
Method in brief: as §2

Abutilon theophrasti [14] = test: Post-emergence herbicidal action, ABUTH; assay type: in vivo; settings: 80 g/ha, Table D
Method in brief: as §1

Cyperus serotinus [15] = test: Post-emergence herbicidal action, CYPES; assay type: in vivo; settings: 5 g/ha
Description: Seeds of monocotyledonous and dicotyledonous weed and crop plants are laid out in sandy loam soil in wood-fiber pots, covered with soil and cultivated in a greenhouse under good growth conditions. 2 to 3 weeks after sowing, the test plants are treated at the one-leaf stage. The compounds of the invention, formulated in the form of wettable powders (WP) or as emulsion concentrates (EC), are then sprayed onto the green parts of the plants in the form of an aqueous suspension or emulsion at a water application rate equating to […], with addition of 0.2% wetting agent. After the test plants have been left to stand in the greenhouse under optimal growth conditions for about 3 weeks, the action of the preparations is assessed visually in comparison to untreated controls (herbicidal action in percent (%): 100% activity=the plants have died, 0% activity=like control plants). […] At the same time, inventive compounds leave Gramineae crops such as barley, wheat, rye, millet/sorghum, corn or rice virtually undamaged when applied post-emergence, even at high active compound dosages. In addition, some substances are also harmless to dicotyledonous crops such as soya, cotton, oilseed rape, sugar beet or potatoes. […]

Amaranthus retroflexus [16] = test: Pre-emergence herbicidal action, AMARE; assay type: in vivo; settings: dosage 320 g/ha, scored visually after 3 weeks vs untreated controls
Method in brief: as §2

Alopecurus myosuroides [17] = test: Post-emergence herbicidal action, ALOMY; assay type: in vivo
Method in brief: as §1

Setaria viridis [18] = test: Post-emergence herbicidal action, SETVI; assay type: in vivo
Method in brief: as §1

Matricaria inodora = test: Pre-emergence herbicidal action, MATIN; assay type: in vivo; settings: for Herbicidal efficacy against MATIN: Table K
Method in brief: as §2

[19] = dosage 320 g/ha, scored visually after 3 weeks vs untreated controls

In the case of `Cc1c(C(=O)Nc2nnnn2C)ccc(C(F)F)c1[S+](C)[O-]` (centres unmarked) [Example 1-2], the “Herbicidal efficacy against AVEFA” value (Avena fatua [1]; 5 g/ha) is reported as 70, the “Herbicidal efficacy against AVEFA” value (Avena fatua [1]; 20 g/ha) is reported as 90 and the “herbicidal activity AVEFA” value (Avena fatua [1]; 80 g/ha, Table C) is reported as 100%. For the same compound, the “Herbicidal efficacy against SETVI” value (Setaria viridis [2]; 80 g/ha) was 90, the “Herbicidal efficacy against SETVI” value (Setaria viridis [2]; 320 g/ha) was 100 and the “herbicidal activity SETVI” value (Setaria viridis [2]; [19]) was 100%. The “herbicidal activity AMARE” value (Amaranthus retroflexus [3]) was 80%, the “Herbicidal efficacy against ALOMY” value (Alopecurus myosuroides [4]; 20 g/ha) was 70 and the “Herbicidal efficacy against ALOMY” value (Alopecurus myosuroides [4]; 80 g/ha) was 90. The “Herbicidal efficacy against ALOMY” value (Alopecurus myosuroides [4]; 320 g/ha) was 100, the “herbicidal activity ALOMY” value (Alopecurus myosuroides [4]; [19]) was 100% and the “Herbicidal activity PHBPU” value (Pharbitis purpureum) was 90%. The “Herbicidal efficacy against AVEFA” value (Avena fatua [5]; 20 g/ha) was 20, the “Herbicidal efficacy against AVEFA” value (Avena fatua [5]; 80 g/ha) was 70 and the “Herbicidal efficacy against AVEFA” value (Avena fatua [5]; 320 g/ha) was 100. The “herbicidal activity AVEFA” value (Avena fatua [5]; [19]) was 100%, the “Herbicidal efficacy against POLCO” value (Polygonum convolvulus; dosage 80 g/ha) was 70 and the “Herbicidal efficacy against POLCO” value (Polygonum convolvulus; dosage 320 g/ha) was 80. The “Herbicidal efficacy against ABUTH” value (Abutilon theophrasti [6]; dosage 80 g/ha) was 100, the “Herbicidal efficacy against ABUTH” value (Abutilon theophrasti [6]; dosage 320 g/ha) was 100 and the “herbicidal activity ABUTH” value (Abutilon theophrasti [6]; [19]) was 100%. The “Herbicidal efficacy against ECHCG” value (ECHCG [7]; 20 g/ha) was 40, the “Herbicidal efficacy against ECHCG” value (ECHCG [7]; 80 g/ha) was 100 and the “Herbicidal efficacy against ECHCG” value (ECHCG [7]; 320 g/ha) was 100. The “Herbicidal activity STEME” value (Stellaria media [8]) was 90%, the “Herbicidal efficacy against VIOTR” value (Viola tricolor [9]; 5 g/ha) was 100 and the “Herbicidal efficacy against VIOTR” value (Viola tricolor [9]; 20 g/ha) was 100. The “herbicidal activity VIOTR” value (Viola tricolor [9]; 80 g/ha, Table D) was 100%, the “Herbicidal efficacy against STEME” value (Stellaria media [10]; 5 g/ha) was 90 and the “Herbicidal efficacy against STEME” value (Stellaria media [10]; 20 g/ha) was 90. The “Herbicidal activity STEME” value (Stellaria media [10]; 80 g/ha, Table D) was 100%, the “Herbicidal efficacy against CYPES” value (Cyperus serotinus [11]; 20 g/ha) was 60 and the “Herbicidal efficacy against CYPES” value (Cyperus serotinus [11]; 80 g/ha) was 80. For the same compound, the “Herbicidal efficacy against CYPES” value (Cyperus serotinus [11]; 320 g/ha) was 90, the “herbicidal activity CYPES” value (Cyperus serotinus [11]; [19]) was 90% and the “Herbicidal activity ECHCG” value (ECHCG [12]) was 90%. The “Herbicidal efficacy against VIOTR” value (Viola tricolor [13]; dosage 20 g/ha) was 80, the “Herbicidal efficacy against VIOTR” value (Viola tricolor [13]; dosage 80 g/ha) was 100 and the “Herbicidal efficacy against VIOTR” value (Viola tricolor [13]; dosage 320 g/ha) was 100. The “herbicidal activity VIOTR” value (Viola tricolor [13]; [19]) was 100%, the “herbicidal activity ABUTH” value (Abutilon theophrasti [14]) was 80% and the “Herbicidal efficacy against CYPES” value (Cyperus serotinus [15]) was 50. The “herbicidal activity AMARE” value (Amaranthus retroflexus [16]) was 100%, the “Herbicidal efficacy against ALOMY” value (Alopecurus myosuroides [17]; 5 g/ha) was 60 and the “Herbicidal efficacy against ALOMY” value (Alopecurus myosuroides [17]; 20 g/ha) was 80. For the same compound, the “herbicidal activity ALOMY” value (Alopecurus myosuroides [17]; 80 g/ha, Table C) was 90%, the “Herbicidal efficacy against SETVI” value (Setaria viridis [18]; 5 g/ha) was 90 and the “Herbicidal efficacy against SETVI” value (Setaria viridis [18]; 20 g/ha) was 90. For the same compound, the “herbicidal activity SETVI” value (Setaria viridis [18]; 80 g/ha, Table C) was 90%, the “Herbicidal efficacy against MATIN” value (Matricaria inodora; dosage 20 g/ha) was 70 and the “Herbicidal efficacy against MATIN” value (Matricaria inodora; dosage 80 g/ha) was 100. The “Herbicidal efficacy against MATIN” value (Matricaria inodora; dosage 320 g/ha) was 100 and the “herbicidal activity MATIN” value (Matricaria inodora; [19]) was 100%.
